In ChEMBL document CHEMBL3997770, “An overview of the binding models of FGFR tyrosine kinases in complex with small molecule inhibitors” (Eur J Med Chem, 2017):
Values belong to the compound of their own block, whether it stands above or below them.

Legend:
[1] = biological target: T1, Fibroblast growth factor receptor 1 (Homo sapiens, UniProt P11362); test: Inhibition of recombinant His6-tagged FGFR1 (unknown origin) expressed in Escherichia coli BL21(DE3)-RILP using peptidic substrate by ELISA
T1 sequence (P11362 whole entry): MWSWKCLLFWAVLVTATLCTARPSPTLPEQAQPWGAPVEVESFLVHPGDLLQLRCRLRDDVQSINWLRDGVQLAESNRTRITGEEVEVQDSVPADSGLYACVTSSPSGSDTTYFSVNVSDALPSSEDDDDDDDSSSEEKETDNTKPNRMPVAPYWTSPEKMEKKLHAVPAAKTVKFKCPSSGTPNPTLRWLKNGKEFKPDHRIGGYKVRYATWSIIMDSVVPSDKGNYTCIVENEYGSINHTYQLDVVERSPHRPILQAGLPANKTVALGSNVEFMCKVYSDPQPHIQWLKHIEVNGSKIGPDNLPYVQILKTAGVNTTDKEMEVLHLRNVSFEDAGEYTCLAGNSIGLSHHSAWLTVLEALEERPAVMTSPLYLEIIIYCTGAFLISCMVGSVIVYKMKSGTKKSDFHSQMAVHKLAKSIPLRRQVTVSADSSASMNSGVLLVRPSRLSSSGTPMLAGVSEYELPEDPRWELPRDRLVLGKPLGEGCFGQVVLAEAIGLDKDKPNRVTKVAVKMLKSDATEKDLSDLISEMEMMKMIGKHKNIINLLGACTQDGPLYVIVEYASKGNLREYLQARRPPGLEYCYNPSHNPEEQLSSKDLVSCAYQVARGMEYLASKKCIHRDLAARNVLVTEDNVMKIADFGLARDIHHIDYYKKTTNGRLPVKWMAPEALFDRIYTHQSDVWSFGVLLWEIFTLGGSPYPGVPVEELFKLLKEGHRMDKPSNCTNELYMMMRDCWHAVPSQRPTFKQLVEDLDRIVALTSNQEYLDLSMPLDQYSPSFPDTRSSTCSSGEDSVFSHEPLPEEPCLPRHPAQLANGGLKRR

[2] = biological target: T2, Fibroblast growth factor receptor 2 (Homo sapiens, UniProt P21802); test: Inhibition of recombinant His6-tagged FGFR2 (unknown origin) expressed in Escherichia coli BL21(DE3)-RILP using peptidic substrate by ELISA
T2 sequence (P21802 whole entry): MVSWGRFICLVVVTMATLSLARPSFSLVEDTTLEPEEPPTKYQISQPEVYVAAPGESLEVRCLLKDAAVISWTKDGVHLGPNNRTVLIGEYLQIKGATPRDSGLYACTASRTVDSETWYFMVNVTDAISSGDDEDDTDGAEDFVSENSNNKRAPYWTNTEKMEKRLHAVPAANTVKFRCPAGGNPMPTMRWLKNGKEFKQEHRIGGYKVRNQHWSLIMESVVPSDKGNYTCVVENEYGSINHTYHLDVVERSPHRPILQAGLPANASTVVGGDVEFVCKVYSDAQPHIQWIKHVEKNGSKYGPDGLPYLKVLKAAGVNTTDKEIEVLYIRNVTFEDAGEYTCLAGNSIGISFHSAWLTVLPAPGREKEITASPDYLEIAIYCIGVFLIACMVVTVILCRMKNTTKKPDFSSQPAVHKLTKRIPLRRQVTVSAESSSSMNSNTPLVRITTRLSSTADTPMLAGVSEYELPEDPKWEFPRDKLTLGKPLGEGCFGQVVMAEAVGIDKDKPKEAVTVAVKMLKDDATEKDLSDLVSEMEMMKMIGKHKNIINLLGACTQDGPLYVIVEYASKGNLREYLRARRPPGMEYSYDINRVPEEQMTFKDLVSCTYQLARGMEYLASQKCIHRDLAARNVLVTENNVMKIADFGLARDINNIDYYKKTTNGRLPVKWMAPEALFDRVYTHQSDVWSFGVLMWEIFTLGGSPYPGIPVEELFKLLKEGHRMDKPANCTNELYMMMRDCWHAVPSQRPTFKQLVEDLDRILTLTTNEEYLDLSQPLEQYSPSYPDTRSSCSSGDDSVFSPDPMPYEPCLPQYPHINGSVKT

[3] = biological target: Fibroblast growth factor receptor 1 (Mus musculus, UniProt P16092); test: Inhibition of FGF induced FGFR1 autophosphorylation in mouse NIH 3T3 cells preincubated for 5 mins followed by FGF-stimulation for 5 mins in presence of [gamma-32P]ATP by SDS-PAGE based autoradiography; type: cell-based
Fibroblast growth factor receptor 1 (Mus musculus, UniProt P16092), sequence (P16092 whole entry, the tested form may be a part): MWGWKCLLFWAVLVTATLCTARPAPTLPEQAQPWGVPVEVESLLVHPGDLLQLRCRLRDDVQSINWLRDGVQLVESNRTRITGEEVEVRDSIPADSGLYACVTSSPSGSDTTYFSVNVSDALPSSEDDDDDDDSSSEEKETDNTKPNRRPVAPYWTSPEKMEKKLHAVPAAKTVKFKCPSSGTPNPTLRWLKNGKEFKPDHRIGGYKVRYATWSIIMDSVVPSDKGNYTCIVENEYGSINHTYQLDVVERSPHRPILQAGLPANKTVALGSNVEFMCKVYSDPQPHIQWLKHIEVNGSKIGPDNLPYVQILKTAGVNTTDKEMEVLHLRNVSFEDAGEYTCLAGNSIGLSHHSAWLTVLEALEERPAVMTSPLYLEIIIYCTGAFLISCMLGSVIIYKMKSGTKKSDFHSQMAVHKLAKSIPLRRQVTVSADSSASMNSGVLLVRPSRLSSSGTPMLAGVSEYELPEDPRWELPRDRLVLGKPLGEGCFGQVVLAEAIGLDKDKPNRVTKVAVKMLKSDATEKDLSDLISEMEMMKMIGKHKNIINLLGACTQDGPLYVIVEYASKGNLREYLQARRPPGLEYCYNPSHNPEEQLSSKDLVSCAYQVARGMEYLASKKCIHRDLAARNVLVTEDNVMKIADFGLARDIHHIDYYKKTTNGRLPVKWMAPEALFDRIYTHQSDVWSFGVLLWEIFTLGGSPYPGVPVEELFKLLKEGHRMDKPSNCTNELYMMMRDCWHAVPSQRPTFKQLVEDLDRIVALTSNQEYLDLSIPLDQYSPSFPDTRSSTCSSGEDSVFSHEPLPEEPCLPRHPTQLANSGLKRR

[4] = biological target: T1, Fibroblast growth factor receptor 1; test: Inhibition of FGFR1 kinase domain (unknown origin)
[5] = test system: SNU-16; test: cells; settings: Homo sapiens, SNU-16, 72 h
[6] = biological target: T2, Fibroblast growth factor receptor 2; test: Inhibition of FGFR2 (unknown origin)
[7] = biological target: Fibroblast growth factor receptor 2 (Homo sapiens, UniProt P21802, V564M); test: Inhibition of FGFR2 V564M mutant (unknown origin)
Fibroblast growth factor receptor 2 (Homo sapiens, UniProt P21802, V564M), sequence (P21802 22-821 V564M limits assumed): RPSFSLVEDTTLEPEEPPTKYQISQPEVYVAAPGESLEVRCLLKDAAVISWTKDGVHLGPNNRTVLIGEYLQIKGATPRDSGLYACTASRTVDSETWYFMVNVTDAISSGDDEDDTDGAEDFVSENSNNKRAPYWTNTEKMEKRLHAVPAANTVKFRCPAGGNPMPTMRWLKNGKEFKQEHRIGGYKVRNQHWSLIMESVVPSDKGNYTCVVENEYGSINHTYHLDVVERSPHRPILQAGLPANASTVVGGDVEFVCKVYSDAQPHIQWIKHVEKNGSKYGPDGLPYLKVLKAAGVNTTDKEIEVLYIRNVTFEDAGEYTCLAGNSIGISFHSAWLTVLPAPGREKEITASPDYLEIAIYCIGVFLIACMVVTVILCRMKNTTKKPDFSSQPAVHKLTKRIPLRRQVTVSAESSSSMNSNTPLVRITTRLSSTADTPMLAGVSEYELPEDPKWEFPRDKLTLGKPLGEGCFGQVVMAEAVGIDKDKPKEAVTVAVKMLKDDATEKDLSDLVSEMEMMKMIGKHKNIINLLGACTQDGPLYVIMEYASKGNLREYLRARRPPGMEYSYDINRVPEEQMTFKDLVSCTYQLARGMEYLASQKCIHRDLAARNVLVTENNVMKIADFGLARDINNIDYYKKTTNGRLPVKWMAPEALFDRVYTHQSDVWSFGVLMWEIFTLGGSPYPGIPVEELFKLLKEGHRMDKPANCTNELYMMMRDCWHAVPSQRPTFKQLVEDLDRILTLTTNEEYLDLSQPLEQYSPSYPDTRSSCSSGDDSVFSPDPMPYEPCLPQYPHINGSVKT

[8] = biological target: T1, Fibroblast growth factor receptor 1; test: Inhibition of FGFR1 (unknown origin)
[9] = biological target: T3, Fibroblast growth factor receptor 4 (Homo sapiens, UniProt P22455); test: Inhibition of FGFR4 (unknown origin)
T3 sequence (P22455 whole entry): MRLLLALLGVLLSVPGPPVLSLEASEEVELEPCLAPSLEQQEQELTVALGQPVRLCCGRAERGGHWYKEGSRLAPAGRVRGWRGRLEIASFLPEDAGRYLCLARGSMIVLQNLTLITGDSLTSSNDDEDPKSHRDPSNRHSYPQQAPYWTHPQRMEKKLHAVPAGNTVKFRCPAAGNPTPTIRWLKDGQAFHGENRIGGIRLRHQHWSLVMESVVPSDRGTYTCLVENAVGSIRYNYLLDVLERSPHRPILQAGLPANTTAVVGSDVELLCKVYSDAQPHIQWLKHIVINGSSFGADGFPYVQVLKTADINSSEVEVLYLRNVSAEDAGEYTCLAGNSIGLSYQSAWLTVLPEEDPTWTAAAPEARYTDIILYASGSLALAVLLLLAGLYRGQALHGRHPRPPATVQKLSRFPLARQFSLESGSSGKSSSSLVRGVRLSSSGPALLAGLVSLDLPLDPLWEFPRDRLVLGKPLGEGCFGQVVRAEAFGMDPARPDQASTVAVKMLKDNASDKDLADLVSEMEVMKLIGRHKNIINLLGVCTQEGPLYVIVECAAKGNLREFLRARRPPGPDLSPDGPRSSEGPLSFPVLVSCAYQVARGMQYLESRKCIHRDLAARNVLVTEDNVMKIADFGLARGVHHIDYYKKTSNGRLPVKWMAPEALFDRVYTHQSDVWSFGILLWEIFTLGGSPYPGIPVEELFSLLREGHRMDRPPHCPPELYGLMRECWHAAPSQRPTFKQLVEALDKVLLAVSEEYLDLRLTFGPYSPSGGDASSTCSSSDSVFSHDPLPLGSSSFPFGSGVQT

[10] = biological target: Fibroblast growth factor receptor 3 (Homo sapiens, UniProt P22607); test: Inhibition of FGFR3 (unknown origin)
Fibroblast growth factor receptor 3, sequence (P22607 whole entry): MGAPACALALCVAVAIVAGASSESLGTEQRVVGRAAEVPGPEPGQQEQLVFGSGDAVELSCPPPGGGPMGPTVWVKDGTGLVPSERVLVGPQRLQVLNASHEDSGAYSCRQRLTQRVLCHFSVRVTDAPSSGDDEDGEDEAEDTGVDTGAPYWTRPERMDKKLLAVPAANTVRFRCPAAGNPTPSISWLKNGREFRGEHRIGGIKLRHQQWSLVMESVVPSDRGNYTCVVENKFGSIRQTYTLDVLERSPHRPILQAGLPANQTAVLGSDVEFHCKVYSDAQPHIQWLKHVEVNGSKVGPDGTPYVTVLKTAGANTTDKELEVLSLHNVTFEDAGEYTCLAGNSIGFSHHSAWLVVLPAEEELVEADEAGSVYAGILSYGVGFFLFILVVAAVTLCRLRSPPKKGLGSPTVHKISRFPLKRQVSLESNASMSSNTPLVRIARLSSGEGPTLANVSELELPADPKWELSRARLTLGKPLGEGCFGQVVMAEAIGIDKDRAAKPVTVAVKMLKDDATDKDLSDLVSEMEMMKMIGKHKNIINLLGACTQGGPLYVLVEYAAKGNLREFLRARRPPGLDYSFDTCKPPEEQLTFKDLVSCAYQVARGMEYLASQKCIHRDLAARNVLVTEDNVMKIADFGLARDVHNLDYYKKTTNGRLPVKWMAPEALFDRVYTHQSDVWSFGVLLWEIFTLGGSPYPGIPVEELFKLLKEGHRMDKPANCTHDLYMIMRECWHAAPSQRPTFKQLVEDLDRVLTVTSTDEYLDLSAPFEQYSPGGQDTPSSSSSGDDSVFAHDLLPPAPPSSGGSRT

[11] = biological target: Epidermal growth factor receptor (Homo sapiens, UniProt P00533, L858R); test: Inhibition of EGFR L858R mutant (unknown origin)
[12] = biological target: T3, Fibroblast growth factor receptor 4; test: Inhibition of human N-terminal GST-tagged FGFR4 cytoplasmic domain (460 to 802 end residues) expressed in baculovirus expression system using CSKtide as substrate after 90 mins

IC50 [1]: 840 nM
IC50 [2]: 1230 nM
Compound: Nc1ncc2c(n1)-c1ccccc1[C@H](c1ccccc1)C2

IC50 [3]: 20000 to 40000 nM
IC50 [4]: 10000 to 20000 nM
Compound: O=CN1CCN(c2ccc(/C=C3\C(=O)Nc4ccccc43)cc2)CC1

IC50 [5]: 642 nM
Compound: CCN1CCN(c2ccc(C(=O)Nc3n[nH]c4cc(-c5cccc(OC)c5)ccc34)cc2)CC1

IC50 [6]: 4 nM
IC50 [7]: 58 nM
EC50 [8]: 1 nM
IC50 [9]: 32 nM
IC50 [10]: 93 nM
Compound: C=CC(=O)Nc1ccc(CN2C(=O)N(c3cc(OC)cc(OC)c3)Cc3cnc(Nc4ccc(N5CCN(C)CC5)cc4)nc32)cc1

IC50 [5]: 40.5 nM
Compound: CCN1CCN(c2ccc(C(=O)Nc3n[nH]c4cc(-c5cccc(OC)c5F)ccc34)cc2)CC1

IC50 [6]: < 1 nM
IC50 [7]: 64 nM
EC50 [8]: 1 nM
IC50 [11]: 16.8 nM
IC50 [9]: 22 nM
IC50 [10]: 41 nM
Compound: C=CC(=O)Nc1ccc(CN(C(=O)Nc2c(Cl)c(OC)cc(OC)c2Cl)c2cc(Nc3ccc(N4CCN(C)CC4)cc3)ncn2)cc1

IC50 [3]: 10000 to 20000 nM
IC50 [4]: 10000 to 20000 nM
Compound: Cc1c[nH]c(/C=C2\C(=O)Nc3ccccc32)c1CCC(=O)O

Compound: C=CC(N)=O [ACRYLAMIDE]
IC50 [12]: 938 nM
